Measurements taken from ChEMBL document CHEMBL3259634, “Novel benzopolycyclic amines with NMDA receptor antagonist activity” (Bioorg Med Chem, 2014).
pIC50: −log10 of the molar value.

Target: Glutamate NMDA receptor
Test: Antagonist activity at NMDA receptor in primary culture of rat cerebellar granule neurons assessed as inhibition of NMDA-induced intracellular calcium level by fluorescence spectrophotometric analysis
Format: cell-based

First: NC12CC3CC(O)(CC(C1)c1ccccc13)C2
Second: NC12CC3CC(F)(CC(C1)c1ccccc13)C2
The pIC50 of the first is 0.92 log units lower: 4.79 for the first, 5.71 for the second. The second is the more potent here.

First: CN(C)C12CC3CC(O)(CC(C1)c1ccccc13)C2
Second: CN(C)C12CC3CC(F)(CC(C1)c1ccccc13)C2
The pIC50 of the first is 0.63 log units lower: 4.15 for the first, 4.78 for the second.

Going from `COC12CC3CC(N)(CC(C1)c1ccccc13)C2` to `NC12CC3CC(C1)c1ccccc1C(C3)C2`, the pIC50 rises from 4.61 to 6.15 (1.54 log units).

`CN(C)C12CC3CC(C1)c1ccccc1C(C3)C2` was tested, and the pIC50 was 5.64.
